The record followed here is patent publication US20220195384A1, “COMPOSITION FOR PROMOTING PRODUCTION OF STEM CELL-DERIVED EXOSOMES AND INCREASING STEMNESS” (BREXOGEN INC., priority 2019, published 2022).

The subject of this experiment is primary umbilical cord-derived mesenchymal stem cells. Kind of experiment: Stem cell stemness: colony formation (CFU-F, crystal violet) after pretreatment. The format is cell-based. As to conditions: 10 ng/mL interferon-γ pretreatment one week. As to the method: In a culture medium [high glucose DMEM (Gibco, Cat no. 11995-065); 10% fetal bovine serum (HyClone), 1% MEM non-essential amino acids solution (100×) (Gibco, Cat no. 11140-050)] containing 20 nM of exendin-4, primary umbilical cord-derived mesenchymal stem cells (ATCC No. PCS-500-010; Lot No. 63822428) were cultured for one week.
In a culture medium [high glucose DMEM (Gibco, Cat no. 11995-065); 10% fetal bovine serum (HyClone), 1% MEM non-essential amino acids solution (100×) (Gibco, Cat no. 11140-050)] containing 10 nM of PMA, primary umbilical cord-derived mesenchymal stem cells (ATCC No. PCS-500-010; Lot No. 63822428) were cultured for one week.
In a culture medium [high glucose DMEM (Gibco, Cat no. 11995-065); 10% fetal bovine serum (HyClone), 1% MEM non-essential amino acids solution (100×) (Gibco, Cat no. 11140-050)] containing 10 ng/mL interferon-γ, primary umbilical cord-derived mesenchymal stem cells (ATCC No. PCS-500-010; Lot No. 63822428) were cultured for one week.
In a culture medium [high glucose DMEM (Gibco, Cat no. 11995-065); 10% fetal bovine serum (HyClone), 1% MEM non-essential amino acids solution (100×) (Gibco, Cat no. 11140-050)] containing 10 μM of tetrandrine, primary umbilical cord-derived mesenchymal stem cells (ATCC No. PCS-500-010; Lot No. 63822428) were cultured for one week.
In a culture medium [high glucose DMEM (Gibco, Cat no. 11995-065); 10% fetal bovine serum (HyClone), 1% MEM non-essential amino acids solution (100×) (Gibco, Cat no. 11140-050)] containing 10 μg/mL hyaluronic acid, primary umbilical cord-derived mesenchymal stem cells (ATCC No. PCS-500-010; Lot No. 63822428) were cultured for one week.
In a culture medium [high glucose DMEM (Gibco, Cat no. 11995-065); 10% fetal bovine serum (HyClone), 1% MEM non-essential amino acids solution (100×) (Gibco, Cat no. 11140-050)] containing 30 nM of substance P, primary umbilical cord-derived mesenchymal stem cells (ATCC No. PCS-500-010; Lot No. 63822428) were cultured for one week.
In a culture medium [high glucose DMEM (Gibco, Cat no. 11995-065); 10% fetal bovine serum (HyClone), 1% MEM non-essential amino acids solution (100×) (Gibco, Cat no. 11140-050)] containing 10 nM of resveratrol, primary umbilical cord-derived mesenchymal stem cells (ATCC No. PCS-500-010; Lot No. 63822428) were cultured for one week.
In a culture medium [high glucose DMEM (Gibco, Cat no. 11995-065); 10% fetal bovine serum (HyClone), 1% MEM non-essential amino acids solution (100×) (Gibco, Cat no. 11140-050)] containing 10 μM of lanifibranor, primary umbilical cord-derived mesenchymal stem cells (ATCC No. PCS-500-010; Lot No. 63822428) were cultured for one week.
Mesenchymal stem cells and the exendin-4-pretreated mesenchymal stem cells of the Example were each seeded at a density of 1,000 cells/dish into 100-mm cell culture dishes containing […] of a culture medium [high glucose DMEM (Gibco, Cat no. 11995-065), 10% fetal bovine serum (HyClone), 1% MEM non-essential amino acids solution (100×) (Gibco, Cat no. 11140-050)] per dish and cultured for 21 days. The cell-attached dishes were washed twice with PBS, followed by fixation with 95% methanol at room temperature for about 2 min. The fixed cells were washed three times with PBS and stained with 0.5% crystal violet [(sigma, C-3886, USA) […], methanol 100 ml] for 5 min. After water washing and drying at room temperature, colonies, each composed of 50 or more cells, were counted for comparison.
Mesenchymal stem cells and the PMA-pretreated mesenchymal stem cells of the Example were each seeded at a density of 1,000 cells/dish into 100-mm cell culture dishes containing […] of a culture medium [high glucose DMEM (Gibco, Cat no. 11995-065), 10% fetal bovine serum (HyClone), 1% MEM non-essential amino acids solution (100×) (Gibco, Cat no. 11140-050)] per dish and cultured for 21 days. The cell-attached dishes were washed twice with PBS, followed by fixation with 95% methanol at room temperature for about 2 min. […]

Regarding “interferon-γ [IFNγ MSC-Exo = exosomes of IFNγ-treated mesenchymal stem cells]”, the “colonies formed (each 50 or more cells)” value (1,000 cells/dish, 21 days, non-treated 28.6) came to 136 colonies. Besides, under “vs non-treated”, the CFU-F increase entry is given as “about 476%”.
